Results as given in the NIST ThermoML archive (doi:10.1021/je901020a).
Numbers after ± are expanded uncertainties.

What was measured:
[1] = xn = mol fraction of the nth substance listed; details: 101 kPa, Liquid; for speed of sound: Pulse-echo method
[2] = refractive index (Na D-line) (dimensionless); xn = mol fraction of the nth substance listed; details: 101 kPa, Liquid, Standard Abbe refractometry

Cc1ccccc1C [1,2-dimethylbenzene] + CC1CCCCC1
x2 = 0
Details	mass density, [1] [kg/m3]	refractive index, [2]	speed of sound, [1] [m/s]
298.15 K	875.4 ± 0.5	1.50262 ± 0.00065	1350 ± 2
313.15 K	862.9 ± 0.5	1.49466 ± 0.00065	1289 ± 2

Cc1ccc(C)cc1 [1,4-dimethylbenzene] + CC1CCCCC1
x2 = 0
Details	mass density, [1] [kg/m3]	refractive index, [2]	speed of sound, [1] [m/s]
298.15 K	856.6 ± 0.5	1.49312 ± 0.001	1310 ± 2
313.15 K	843.5 ± 0.5	1.48444 ± 0.001	1248 ± 2

Cc1ccccc1C [1,2-dimethylbenzene] + C1CCCCC1
Details	mass density, [1] [kg/m3]	refractive index, [2]	speed of sound, [1] [m/s]
298.15 K, x2 = 0	875.4 ± 0.5	1.50262 ± 0.00065	1350 ± 2
298.15 K, x2 = 0.0471	870.8 ± 0.5	1.49895 ± 0.0007	1343 ± 2
298.15 K, x2 = 0.0981	865.5 ± 0.5	1.49488 ± 0.00063	1336 ± 2
298.15 K, x2 = 0.1961	855.2 ± 0.5	1.48705 ± 0.00062	1323 ± 2
298.15 K, x2 = 0.2986	844.5 ± 0.5	1.47886 ± 0.00069	1310 ± 2
298.15 K, x2 = 0.3979	834 ± 0.5	1.47092 ± 0.00069	1298 ± 2
298.15 K, x2 = 0.4964	823.8 ± 0.5	1.46293 ± 0.00069	1288 ± 2
298.15 K, x2 = 0.5975	813.5 ± 0.5	1.45493 ± 0.00062	1278 ± 2
298.15 K, x2 = 0.6978	803.2 ± 0.5	1.44691 ± 0.00061	1269 ± 2
298.15 K, x2 = 0.796	793.4 ± 0.5	1.43924 ± 0.00068	1263 ± 2
298.15 K, x2 = 0.8995	783.4 ± 0.5	1.43126 ± 0.00063	1257 ± 2
298.15 K, x2 = 0.9512	778.6 ± 0.5	1.42739 ± 0.00068	1255 ± 2
313.15 K, x2 = 0	862.9 ± 0.5	1.49466 ± 0.00065	1289 ± 2
313.15 K, x2 = 0.0528	857.4 ± 0.5	1.49053 ± 0.00064	1282 ± 2
313.15 K, x2 = 0.0977	852.7 ± 0.5	1.48716 ± 0.00063	1275 ± 2
313.15 K, x2 = 0.1958	842.3 ± 0.5	1.47934 ± 0.00062	1261 ± 2
313.15 K, x2 = 0.2169	840 ± 0.5	1.47754 ± 0.00056	1258 ± 2
313.15 K, x2 = 0.4011	820.4 ± 0.5	1.46285 ± 0.00061	1234 ± 2
313.15 K, x2 = 0.4999	809.9 ± 0.5	1.45473 ± 0.00059	1222 ± 2
313.15 K, x2 = 0.5976	799.6 ± 0.5	1.44694 ± 0.00062	1211 ± 2
313.15 K, x2 = 0.6971	789.4 ± 0.5	1.43921 ± 0.00061	1201 ± 2
313.15 K, x2 = 0.7994	779 ± 0.5	1.43094 ± 0.00062	1193 ± 2
313.15 K, x2 = 0.8995	769.1 ± 0.5	1.42311 ± 0.00063	1186 ± 2
313.15 K, x2 = 0.9484	764.5 ± 0.5	1.41926 ± 0.00064	1183 ± 2

Cc1ccc(C)cc1 [1,4-dimethylbenzene] + C1CCCCC1
Details	mass density, [1] [kg/m3]	refractive index, [2]	speed of sound, [1] [m/s]
298.15 K, x2 = 0	856.6 ± 0.5	1.49312 ± 0.00069	1310 ± 2
298.15 K, x2 = 0.0459	852.9 ± 0.5	1.49003 ± 0.0007	1306 ± 2
298.15 K, x2 = 0.0952	848.6 ± 0.5	1.4866 ± 0.0007	1301 ± 2
298.15 K, x2 = 0.1948	840.1 ± 0.5	1.47959 ± 0.0007	1292 ± 2
298.15 K, x2 = 0.2874	832.3 ± 0.5	1.47324 ± 0.00069	1284 ± 2
298.15 K, x2 = 0.3929	823 ± 0.5	1.4656 ± 0.00069	1275 ± 2
298.15 K, x2 = 0.4964	814.1 ± 0.5	1.45843 ± 0.00069	1269 ± 2
298.15 K, x2 = 0.5938	805.7 ± 0.5	1.45142 ± 0.00068	1263 ± 2
298.15 K, x2 = 0.6949	797.2 ± 0.5	1.44417 ± 0.00068	1258 ± 2
298.15 K, x2 = 0.7906	789.5 ± 0.5	1.43762 ± 0.00068	1254 ± 2
298.15 K, x2 = 0.8927	781.5 ± 0.5	1.43057 ± 0.00068	1253 ± 2
298.15 K, x2 = 0.9493	777.5 ± 0.5	1.42692 ± 0.00068	1253 ± 2
313.15 K, x2 = 0	843.5 ± 0.5	1.48444 ± 0.00069	1248 ± 2
313.15 K, x2 = 0.0494	839.4 ± 0.5	1.48145 ± 0.00068	1243 ± 2
313.15 K, x2 = 0.1056	834.5 ± 0.5	1.47781 ± 0.00066	1238 ± 2
313.15 K, x2 = 0.2078	825.8 ± 0.5	1.47072 ± 0.00064	1228 ± 2
313.15 K, x2 = 0.3149	816.5 ± 0.5	1.46341 ± 0.00063	1218 ± 2
313.15 K, x2 = 0.4156	807.5 ± 0.5	1.45628 ± 0.0006	1209 ± 2
313.15 K, x2 = 0.5115	799.2 ± 0.5	1.44953 ± 0.0006	1202 ± 2
313.15 K, x2 = 0.6083	790.9 ± 0.5	1.44272 ± 0.00062	1195 ± 2
313.15 K, x2 = 0.7079	782.5 ± 0.5	1.43584 ± 0.00067	1189 ± 2
313.15 K, x2 = 0.8167	773.7 ± 0.5	1.42845 ± 0.00061	1184 ± 2
313.15 K, x2 = 0.9109	766.2 ± 0.5	1.42167 ± 0.00049	1182 ± 2
313.15 K, x2 = 0.9601	762.5 ± 0.5	1.41809 ± 0.00045	1181 ± 2
